Patent US20250339443A1, “METHOD FOR TREATING OR PREVENTING CALCIUM RELEASE-ACTIVATED CALCIUM CHANNEL OR DISCOIDIN DOMAIN RECEPTOR 2 RELATED DISORDERS OR CONDITIONS” (LumiSTAR Biotechnology, Inc., priority 2023, published 2025)

What was measured:
[1] = tested on: human cardiac fibroblast (HCF); assay: TGF-β1-induced fibronectin deposition and α-SMA expression in HCF (immunofluorescence); format: cell-based; settings: for TGF-β1-increased cell spreading area: 10 μM co-treatment; for expression of fibronectin and α-SMA induced by TGF-β1: 10 μM, immunofluorescence
Experimental: (§1) Cells were co-treated with various compounds (10 μM) and TGF-β1 for 24 hours. Following this, cell lysates were harvested, and the protein expression was assessed by Western blot analysis. FIG. 3D depicts the examination of TGF-β1-induced fibronectin deposition and α-SMA expression in HCF treated with 10 μM of DMSO, BTP2, WRG-28, or Av through immunofluorescence staining. The images were captured using a confocal microscope, the Olympus FV-1000. FIG. 3E, FIG. 3F, and FIG. 3G illustrate the assessment of CRAC channel activity in HCF, MRC5, and rat HSC-T6. These cells were pretreated with 10 μM of BTP2, WRG-28, or Av for 45 min. The evaluation included measuring the second peak of each calcium wave and the rate of entry. Each bar within the figure represents the mean value derived from 77 to 91 cells for HCF, 31 to 49 cells for MRC5, and 43 to 94 cells for HSC-T6. In all the graphs, *, **, and *** denote p-values of <0.05, 0.01, and 0.001, respectively.
In TGF-β1-induced cell differentiation, cells were seeded on a type I collagen-coated tissue culture dish and then treated with different compounds for 4 hours. Cells were then treated with 10 ng/ml TGF-β1 for another 24 hours before protein analysis or immunocytochemistry study.
Cells cultured on chamber slides were fixed with 4% paraformaldehyde for 10 minutes followed by a permeabilization step by incubating cells in 0.5% Triton X-100 in PBS for 5 minutes. Cells were then incubated in SuperBlock blocking buffer (Thermo Scientific) for 1 h at room temperature. The protein expression was detected by incubating cells with specific primary antibodies followed by incubating cells with secondary antibodies against mouse or rabbit IgG conjugated with Alexa-488 or -594 nm (Invitrogen), respectively. Hoechst 33258 (10 μg/ml) is used for nuclei staining. All images were visualized and taken by confocal microscopy (Olympus, FV-1000).
To assess the overall effects of WRG-28 and Av on TGF-1-induced fibroblast activation, human cardiac fibroblasts (HCF), human pulmonary fibroblasts (MRC5), and rat hepatic stellate cells (HSC-T6) were employed. The upregulation of α-SMA induced by TGF-β1 treatment was observed, but this effect was suppressed by the co-treatment with various compounds, including BTP2, WRG-28, and Av, across all tested cell (FIG. 3A, FIG. 3B, and FIG. 3C). The expression of fibronectin and α-SMA induced by TGF-β1 in HCF was examined, and once again, the treatment with BTP2, WRG-28, or Av suppressed this effect (FIG. 3D).

[2] = tested on: human cardiac fibroblast (HCF); assay: TGF-β1-induced activation of human cardiac fibroblasts (Western blot); format: cell-based; settings: 10 μM co-treatment, 24 hours
Experimental: as §1, with “Each bar within the figure represents the mean value derived from 77 to 91 cells for HCF, 31 to 49 cells for MRC5, and 43 to 94 cells for HSC-T6. In all the graphs, *, **, and *** denote p-values of <0.05, 0.01, and 0.001, respectively.” left out
(§2) Cell lysates were harvested in RIPA buffer (150 mM NaCl, 1 mM EGTA, 50 mM Tris pH 7.4, 10% glycerol, 1% Triton X-100, 1% sodium deoxycholate, 0.1% SDS, and protease inhibitor cocktail) and collected from culture dish with cell scrapers. […] The protein expression levels were assessed by specific primary antibodies, including antibodies against phosphotyrosine (clone 4G10; Millipore), DDR2 (R&D), α-SMA (Sigma), Collagen 1a1 (Boster), E-cadherin (BD Biosciences), SGLT2 (Proteintech), NHE1 (Novus) and β-actin (Clone C4, Millipore), followed by incubating with secondary antibodies conjugated with HRP and detected by ECL kit (Thermo Scientific). […]

[3] = tested on: THP-1 derived macrophages; assay: Cytokine secretion in macrophages (ELISA); format: cell-based, human; settings: IFN-γ/LPS induction, culture medium
[4] = tested on: human pulmonary fibroblast (MRC5); assay: TGF-β1-induced activation of human pulmonary fibroblasts (Western blot); format: cell-based; settings: MRC5, 10 μM co-treatment, 24 hours
Experimental: as §1, with “Each bar within the figure represents the mean value derived from 77 to 91 cells for HCF, 31 to 49 cells for MRC5, and 43 to 94 cells for HSC-T6. In all the graphs, *, **, and *** denote p-values of <0.05, 0.01, and 0.001, respectively.” left out
as §2

NRK49F cells = assay: Collagen alignment assay in FITC-conjugated collagen gel; format: cell-based, rat; settings: 10 ng/ml TGF-β1, 10 μM, 5 days
Experimental: FIG. 2A, FIG. 2B, FIG. 2C, FIG. 2D, FIG. 2E, FIG. 2F, FIG. 2G-1, and FIG. 2G-2 display how WRG-28 and Av suppress TGF-β1-induced fibroblasts activation and the differentiation of pericytes into myofibroblasts. […] Each bar represents the mean #SEM. […] The protein levels of collagen 1a1 and α-SMA were assessed using Western blot analysis under various conditions. […] Each bar represents mean±SEM. […] The images were acquired using a confocal microscope (Olympus, MPE). FIG. 2G-1 and FIG. 2G-2 display the measurement of angles between collagen fibers and the cell membrane, conducted using Image J. At least five different images from each condition were analyzed. Each bar represents mean±SEM. In all graphs, *, **, and *** represent p-value <0.05, 0.01, and 0.001, respectively. ‘ns’ denotes p-value >0.05, indicating no significant difference.
FITC-conjugated collagen was used to make collagen gel and cells were grown in the gel for 5 days. After that cells were fixed with 4% paraformaldehyde and phalloidin-TRICT was used as counterstaining in the evaluation of the cell body. The angles between fibers and cell membrane were measured by image J.
The alignment of the extracellular matrix (ECM) is a unique characteristic of myofibroblasts, altering the physical properties of the tissue microenvironment and posing a threat to tissue homeostasis during organ fibrosis. […]

Jurkat T cells = assay: Cytokine secretion in T cells (ELISA); format: cell-based, human; settings: PHA/PMA induction, culture medium
[5] = tested on: rat hepatic stellate cells (HSC-T6); assay: TGF-β1-induced activation of rat hepatic stellate cells (Western blot); format: cell-based; settings: HSC-T6, 10 μM co-treatment, 24 hours
Experimental: as §1, with “Each bar within the figure represents the mean value derived from 77 to 91 cells for HCF, 31 to 49 cells for MRC5, and 43 to 94 cells for HSC-T6. In all the graphs, *, **, and *** denote p-values of <0.05, 0.01, and 0.001, respectively.” left out
as §2

SMILES	TGF-β1-increased cell spreading area [1]	expression of fibronectin and α-SMA induced by TGF-β1 [1]	upregulation of α-SMA induced by TGF-β1 [2]	secretion of IL-2 in macrophages [3]	secretion of IL-6 in macrophages [3]	secretion of TNF-β in macrophages [3]	upregulation of α-SMA induced by TGF-β1 [4]	TGF-β1-induced collagen alignment (NRK49F cells)	secretion of IL-2 in T cells (Jurkat T cells)	upregulation of α-SMA induced by TGF-β1 [5]
Cc1nnsc1C(=O)Nc1ccc(-n2nc(C(F)(F)F)cc2C(F)(F)F)cc1 [BTP2]	mitigated	suppressed	suppressed	significantly reduced	significantly reduced	significantly reduced	suppressed	reduced	significantly reduced	suppressed
CCNS(=O)(=O)c1ccc(COc2ccc3nc4ccc(=O)cc-4oc3c2)cc1 [WRG-28]	mitigated	suppressed	suppressed	significantly reduced	significantly reduced	significantly reduced	suppressed	reduced	significantly reduced	suppressed
